Structures can show the parent of a compound that is named as a salt.
Test system: HIVIIIb in CCRM-CEM cells
Assay: Anti-viral potency in CCRM-CEM cells acutely infected with HIVIIIb (method of Meek et al.), extracellular p24 antigen
Assay type: cell-based, HIV-1
Settings: Human immunodeficiency virus 1, HIV replication, Table VIII, read-out: IC90 Range
Source text: As discussed above, the novel compounds of the present invention are excellent ligands for aspartyl proteases, particularly HIV-1 and HIV-2 proteases. Accordingly, these compounds are capable of targeting and inhibiting late stage events in HIV replication, i.e., the processing of the viral polyproteins by HIV encoded proteases. […] Because aspartyl protease is essential for the production of mature virions, inhibition of that processing effectively blocks the spread of virus by inhibiting the production of infectious virions, particularly from chronically infected cells. […] Other anti-viral assays have confirmed the potency of these compounds.
Compounds of formula I were tested for their antiviral potency in several virological assays. In the first assay, the compounds were added as a solution in dimethylsulfoxide (DMSO) to a test cell culture of CCRM-CEM cells, a strain of CD4^+ human T-cell lymphoma cells, previously acutely infected with HIVIIIb using standard protocols (see Meek, T. D. et al., "Inhibition of HIV-1 protease in infected T-lymphocytes by synthetic peptide analogues", Nature, 343, p. 90 (1990). Preferred compounds are those which are able to inhibit 90% of viral infectivity at a concentration of 1 μM or less. More preferred compounds are those which are able to inhibit 90% of viral infectivity at a concentration of 100 nM or less.
The effect of the compounds on inhibiting the replication of the virus was measured by determining the HIV extracellular p24 antigen concentration using a commercial enzyme immunoassay (obtained from Coulter Corporation, Hialeah, Fla.).

Row | Structure (SMILES) | IC90 [nM]
1 | COc1ccc(S(=O)(=O)N(CC2CCCC2)C[C@@H](O)[C@H](Cc2ccccc2)NC(=O)O[C@H]2CCOC2)cc1 [Compound 140, N-cyclopentylmethyl-N-((2 syn,3S)-2-hydroxy-4-phenyl-3-((S)-tetrahydrofuran-3-yloxycarbonylamino)-butyl)-4-methoxy-benzenesulfonamide] | < 100
2 | C=CCOC(=O)N[C@@H](Cc1ccccc1)[C@H](O)CN(CC1CCCC1)S(=O)(=O)c1ccc(OC)cc1 [Compound 141, N-((3-allyloxycarbonylamino)-(2 syn,3S)-2-hydroxy-4-phenyl-butyl)-N-cyclopentylmethyl-4-methoxy-benzenesulfonamide] | 101 to 1000
3 | COc1ccc(S(=O)(=O)N(CC2CCCC2)C[C@@H](O)[C@H](Cc2ccccc2)NC(=O)OCc2cccnc2)cc1 [Compound 142] | < 100
4 | CC(C)CN(C[C@@H](O)[C@H](Cc1ccccc1)NC(=O)O[C@H]1CCOC1)S(=O)(=O)c1cccnc1 [Compound 144, Pyridine-3-sulfonic acid ((2 syn,3S)-2-hydroxy-4-phenyl-3-((S)-tetrahydrofuran-3-yloxycarbonylamino)-butyl)-isobutyl-amide, trifluoroacetic acid salt] | 101 to 1000
5 | CC(C)CN(C[C@@H](O)[C@H](Cc1ccccc1)NC(=O)O[C@H]1CCOC1)S(=O)(=O)c1ccc(-c2ccon2)s1 [Compound 145, 5-Isoxazol-3-yl-thiophene-2-sulfonic acid ((2 syn,3S)-2-hydroxy-4-phenyl-3-((S)-tetrahydrofuran-3-yloxycarbonylamino)-butyl)-isobutyl-amide] | 101 to 1000
6 | C=CCOC(=O)N[C@@H](Cc1ccccc1)[C@H](O)CN(CC1CCCC1)S(=O)(=O)c1ccc(NC(C)=O)cc1 [Compound 146, N-(4-((3-(Allyloxycarbonylamino)-(2 syn,3S)-2-hydroxy-4-phenyl-butyl)-cyclopentylmethylsulfamoyl)-phenyl)-acetamide] | 101 to 1000
7 | CC(=O)Nc1ccc(S(=O)(=O)N(CC2CCCC2)C[C@@H](O)[C@H](Cc2ccccc2)NC(=O)OCc2cccnc2)cc1 [Compound 147, N-(4-(Cyclopentylmethyl-((2 syn,3S)-2-hydroxy-4-phenyl-3-(pyridin-3-yl-methoxycarbonylamino)-butyl)-sulfamoyl)-phenyl)-acetamide] | 101 to 1000
8 | O=C(N[C@@H](Cc1ccccc1)[C@H](O)CN(CC1CCCC1)S(=O)(=O)c1ccccc1)O[C@H]1CCOC1 [Compound 148, N-Cyclopentylmethyl-N-((2 syn,3S)-2-hydroxy-4-phenyl-3-((S)-tetrahydrofuran-3-yloxycarbonylamino)-butyl)-benzenesulfonamide] | < 100
9 | O=C(N[C@@H](Cc1ccccc1)[C@H](O)CN(CC1CCCC1)S(=O)(=O)c1cccnc1)O[C@H]1CCOC1 [Compound 149, Pyridine-3-sulfonic acid cyclopentylmethyl-((2 syn,3S)-2-hydroxy-4-phenyl-3-((S)-tetrahydrofuran-3-yloxycarbonylamino)-butyl)-amide] | 101 to 1000
10 | CC(C)CN(C[C@@H](O)[C@H](Cc1ccccc1)NC(=O)O[C@H]1CCOC1)S(=O)(=O)N1CCCCC1 [Compound 150, Piperidine-1-sulfonic acid ((2 syn,3S)-2-hydroxy-4-phenyl-3-((S)-tetrahydrofuran-3-yloxycarbonylamino)-butyl)-isobutyl-amide] | 101 to 1000
11 | O=C(N[C@@H](Cc1ccccc1)[C@H](O)CN(CC1CCCC1)S(=O)(=O)c1ccc(OC(F)(F)F)cc1)O[C@H]1CCOC1 [Compound 151] | 1000 to 10000
12 | C=C(COC)COC(=O)N[C@@H](Cc1ccccc1)[C@H](O)CN(CC(C)C)S(=O)(=O)c1ccc(NC(C)=O)cc1 [Compound 155, N-4-((2-(syn)-Hydroxy-3-((2-methoxymethyl-allyloxycarbonylamino)-4-(S)-phenyl-butyl)-isobutyl-sulfamoyl)-phenyl)-acetamide] | 101 to 1000
13 | C=CCOC(=O)N[C@@H](Cc1ccccc1)[C@H](O)CN(CC1CCCC1)S(=O)(=O)c1ccc2c(c1)CCN2C(C)=O [Compound 156] | 101 to 1000
14 | COc1ccc(S(=O)(=O)N(CC2CCCCC2)C[C@@H](O)[C@H](Cc2ccccc2)NC(=O)O[C@H]2CCOC2)cc1 [Compound 158, N-Cyclohexylmethyl-N-((2 syn,3S)-2-hydroxy-4-phenyl-3-((S)-tetrahydrofuran-3-yloxycarbonylamino)-butyl)-4-methoxy-benzenesulfonamide] | < 100
15 | O=C(N[C@@H](Cc1ccccc1)[C@H](O)CN(CC1CCCCC1)S(=O)(=O)c1ccc(F)cc1)O[C@H]1CCOC1 [Compound 159, N-Cyclohexylmethyl-4-fluoro-N-((2 syn,3S)-2-hydroxy-4-phenyl-3-((S)-tetrahydrofuran-3-yloxycarbonylamino)-butyl)-benzenesulfonamide] | 101 to 1000
16 | CC(=O)Nc1ccc(S(=O)(=O)N(CC2CCCCC2)C[C@@H](O)[C@H](Cc2ccccc2)NC(=O)O[C@H]2CCOC2)cc1 [Compound 160, N-(4-(Cyclohexylmethyl)-((2 syn,3S)-2-hydroxy-4-phenyl-3-((S)-tetrahydrofuran-3-yloxycarbonylamino)-butyl)-sulfamoyl-phenyl)-acetamide] | < 100
17 | C=C(COC)COC(=O)N[C@@H](Cc1ccccc1)[C@H](O)CN(CC1CCCC1)S(=O)(=O)c1ccc(OC)cc1 [Compound 162] | 1000 to 10000
18 | COc1ccc(S(=O)(=O)N(CC(C)C)C[C@@H](O)[C@H](Cc2ccccc2)NC(=O)OCc2ccncc2)cc1 [Compound 163, N-((2 syn,3S)-2-Hydroxy-4-phenyl-3-(pyridin-4-yl-methoxycarbonylamino)-butyl)-N-isobutyl-4-methoxy-benzenesulfonamide] | 101 to 1000
19 | Cc1ccc(S(=O)(=O)N(CC(C)C)C[C@@H](O)[C@H](Cc2ccccc2)NC(=O)O[C@H]2CCOC2)cc1 [Compound 165, N-((2 syn,3S)-2-Hydroxy-4-phenyl-3-((syn)-tetrahydrofuran-3-yloxycarbonylamino)-butyl)-N-isobutyl-4-methyl-benzenesulfonamide] | 101 to 1000
20 | O=C(N[C@@H](Cc1ccccc1)[C@H](O)CN(CC1CCCC1)S(=O)(=O)c1ccc(O)cc1)OCc1cccnc1 [Compound 166, N-cyclopentylmethyl-4-hydroxy-N-((2 syn,3S)-2-hydroxy-4-phenyl-3-(pyridin-3-yl-methoxycarbonylamino)-butyl)-benzenesulfonamide] | < 100
21 | CC(C)CN(C[C@@H](O)[C@H](Cc1ccccc1)NC(=O)O[C@H]1CCOC1)S(=O)(=O)c1ccc([N+](=O)[O-])cc1 [Compound 167, N-((2 syn,3S)-2-Hydroxy-4-phenyl-3-((S)-tetrahydrofuran-3-yloxycarbonylamino)-butyl)-N-isobutyl-4-nitro-benzenesulfonamide] | 101 to 1000
22 | O=C(N[C@@H](Cc1ccccc1)[C@H](O)CN(CC1CCCC1)S(=O)(=O)c1ccc(O)cc1)O[C@H]1CCOC1 [Compound 169, N-Cyclopentylmethyl-4-hydroxy-N-((2 syn,3S)-2-hydroxy-4-phenyl-3-((S)-tetrahydrofuran-3-yloxycarbonylamino)-butyl)-benzenesulfonamide] | < 100
23 | O=C(N[C@@H](Cc1ccccc1)[C@H](O)CN(CC1CCCC1)S(=O)(=O)c1ccc([N+](=O)[O-])cc1)O[C@H]1CCOC1 [Compound 170, N-Cyclopentylmethyl-N-((2 syn,3S)-2-hydroxy-4-phenyl-3-((S)-tetrahydrofuran-3-yloxycarbonylamino)-butyl)-4-nitro-benezensulfonamide] | 101 to 1000
24 | Nc1ccc(S(=O)(=O)N(CC2CCCC2)C[C@@H](O)[C@H](Cc2ccccc2)NC(=O)O[C@H]2CCOC2)cc1 [Compound 171, 4-Amino-N-cyclopentylmethyl-N-((2 syn,3S)-2-hydroxy-4-phenyl-3-((S)-tetrahydrofuran-3-yloxycarbonylamino)-butyl)-banzenesulfonamide] | < 100
25 | Nc1ccc(S(=O)(=O)N(CC2CCCC2)C[C@@H](O)[C@H](Cc2ccccc2)NC(=O)O[C@H]2CCOC2)c(N)c1 [Compound 173, 2,4-Diamino-N-cyclopentylmethyl-N-((2 syn,3S)-2-hydroxy-4-phenyl-3-((S)-tetrahydrofuran-3-yloxycarbonylamino)-butyl)-benzenesulfonamide] | < 100
26 | CC(C)CN(C[C@@H](O)[C@H](Cc1ccccc1)NC(=O)O[C@H]1CCOC1)S(=O)(=O)c1ccc(O)cc1 [Compound 175] | < 100
27 | O=C(N[C@@H](Cc1ccccc1)[C@H](O)CN(CC1CCCC1)S(=O)(=O)c1ccc(F)cc1)O[C@H]1CCOC1 [Compound 182, N-Cyclopentylmethyl-4-fluoro-N-((2 syn,3S)-2-hydroxy-4-phenyl-3-((S)-tetrahydrofuran-3-yloxycarbonylamino)-butyl)-benzenesulfonamide] | 101 to 1000
28 | O=C(N[C@@H](Cc1ccccc1)[C@H](O)CN(CC1CCCC1)S(=O)(=O)c1ccc(Cl)c(Cl)c1)O[C@H]1CCOC1 [Compound 183, 3,4-Dichloro-N-cyclopentylmethyl-N-((2 syn,3S)-2-hydroxy-4-phenyl-3-((S)-tetrahydrofuran-3-yloxycarbonylamino)-butyl)-benzenesulfonamide] | 101 to 1000
